Data published in the supplement of paper PMC10627819.

What was measured:
S. aureus Newman = assay: fitness (endpoint OD595 vs no drug) (fraction); higher = more growth
Summary of the method: (§1)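 With the first reading as background, OD595 was measured every 30 min for 14 h in 384-well plates kept at 37 °C and inoculated at OD595 0.01. TSB, LB Lennox or CY was the medium. Fitness is the optical density at the transition into stationary phase divided by the robust mean of no-drug control wells, with a cap of 1.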

S. pneumoniae D39V = assay: as above
Summary of the method: as §1
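Further: OD595 on entry to stationary phase over no-drug wells; at most 1.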

O=C(N[C@H](CO)[C@H](O)c1ccc([N+](=O)[O-])cc1)C(Cl)Cl [Chloramphenicol] + CC1(C)S[C@@H]2[C@H](NC(=O)Cc3ccccc3)C(=O)N2[C@H]1C(=O)O [Penicillin G]
fitness, S. aureus Newman
Conditions | first compound 0.75 µg/mL | first compound 1.5 µg/mL | first compound 3 µg/mL
partner 0.0195 µg/mL | 0.744 | 0.494 | 0.187
partner 0.039 µg/mL | 0.742 | 0.475 | 0.173
partner 0.078 µg/mL | 0.72 | 0.477 | 0.181

O=C(N[C@H](CO)[C@H](O)c1ccc([N+](=O)[O-])cc1)C(Cl)Cl [Chloramphenicol] + CC1=C(C(=O)O)N2C(=O)[C@@H](NC(=O)[C@H](N)c3ccccc3)[C@H]2SC1 [Cephalexin]
fitness, S. aureus Newman
Conditions | partner 0.25 µg/mL | partner 0.5 µg/mL | partner 1 µg/mL
first compound 0.75 µg/mL | 0.792 | 0.891 | 0.908
first compound 3 µg/mL | – | 0.312 | –

O=C(N[C@H](CO)[C@H](O)c1ccc([N+](=O)[O-])cc1)C(Cl)Cl [Chloramphenicol] + CO/N=C(\C(=O)N[C@@H]1C(=O)N2C(C(=O)O)=C(COC(N)=O)CS[C@H]12)c1ccco1 [Cefuroxime]
fitness, S. aureus Newman, one replicate
Conditions | first compound 0.75 µg/mL | first compound 1.5 µg/mL | first compound 3 µg/mL
partner 0.04875 µg/mL | 0.808 | 0.377 | –
partner 0.0975 µg/mL | 0.697 | 0.312 | 0.0949
partner 0.195 µg/mL | 0.64 | 0.206 | 0.065

O=C(N[C@H](CO)[C@H](O)c1ccc([N+](=O)[O-])cc1)C(Cl)Cl [Chloramphenicol] + O=C(O)[C@H]1/C(=C/CO)O[C@@H]2CC(=O)N21 [Clavulanic acid]
fitness, S. aureus Newman, one replicate
Conditions | first compound 0.75 µg/mL | first compound 1.5 µg/mL | first compound 3 µg/mL
partner 0.03125 µg/mL | 0.891 | 0.7 | 0.0864
partner 0.0625 µg/mL | 0.889 | 0.708 | –
partner 0.125 µg/mL | 0.85 | 0.494 | 0.11

CC[C@H]1OC(=O)[C@H](C)[C@@H](O[C@H]2C[C@@](C)(OC)[C@@H](O)[C@H](C)O2)[C@H](C)[C@@H](O[C@@H]2O[C@H](C)C[C@H](N(C)C)[C@H]2O)[C@](C)(OC)C[C@@H](C)C(=O)[C@H](C)[C@@H](O)[C@]1(C)O [Clarithromycin] + CC1=C(C(=O)O)N2C(=O)[C@@H](NC(=O)[C@H](N)c3ccccc3)[C@H]2SC1 [Cephalexin]
fitness, S. pneumoniae D39V, one replicate
Conditions | first compound 0.007812 µg/mL | first compound 0.01562 µg/mL | first compound 0.03125 µg/mL | first compound 0.0625 µg/mL | first compound 0.125 µg/mL | first compound 0.25 µg/mL
partner 0.125 µg/mL | – | – | – | 0.701 | 0.33 | 0.138
partner 0.25 µg/mL | – | – | – | 0.723 | 0.381 | 0.174
partner 0.5 µg/mL | – | – | – | 0.777 | 0.4 | 0.163
partner 1 µg/mL | 0.314 | 0.417 | 0.236 | – | – | –
partner 2 µg/mL | 0.028 | 0.0414 | 0.0229 | – | – | –
partner 4 µg/mL | 0.0398 | 0.0811 | 0.0306 | – | – | –

fitness, S. pneumoniae D39V
Conditions | first compound 0.07 µg/mL | first compound 0.14 µg/mL | first compound 0.28 µg/mL
partner 1 µg/mL | 0.0665 | 0.0755 | 0.0377
partner 2 µg/mL | 0.0399 | 0.0839 | 0.0276
partner 4 µg/mL | 0.0364 | 0.0743 | 0.0463

CC[C@H]1OC(=O)[C@H](C)[C@@H](O[C@H]2C[C@@](C)(OC)[C@@H](O)[C@H](C)O2)[C@H](C)[C@@H](O[C@@H]2O[C@H](C)C[C@H](N(C)C)[C@H]2O)[C@](C)(OC)C[C@@H](C)C(=O)[C@H](C)[C@@H](O)[C@]1(C)O [Clarithromycin] + CN(C)[C@@H]1C(O)=C(C(N)=O)C(=O)[C@@]2(O)C(O)=C3C(=O)c4c(O)ccc(Cl)c4[C@@](C)(O)[C@H]3C[C@@H]12 [Chlortetracycline]
fitness, S. pneumoniae D39V, one replicate
Conditions | first compound 0.007812 µg/mL | first compound 0.01562 µg/mL | first compound 0.03125 µg/mL
partner 0.012 µg/mL | 0.693 | 0.688 | 0.542
partner 0.024 µg/mL | 0.844 | 0.654 | 0.455
partner 0.048 µg/mL | 0.693 | 0.519 | 0.244

fitness, S. pneumoniae D39V
Conditions | first compound 0.0625 µg/mL | first compound 0.07 µg/mL | first compound 0.125 µg/mL | first compound 0.14 µg/mL | first compound 0.25 µg/mL | first compound 0.28 µg/mL
partner 0.012 µg/mL | – | 0.0902 | – | 0.14 | – | 0.093
partner 0.024 µg/mL | – | 0.121 | – | 0.122 | – | 0.0945
partner 0.048 µg/mL | – | 0.123 | – | 0.132 | – | 0.118
partner 0.375 µg/mL | 0.0643 | – | 0.0595 | – | 0.0683 | –
partner 0.75 µg/mL | 0.0438 | – | 0.0485 | – | 0.0679 | –
partner 1.5 µg/mL | 0.0386 | – | 0.0516 | – | 0.0374 | –

CC[C@H]1OC(=O)[C@H](C)[C@@H](O[C@H]2C[C@@](C)(OC)[C@@H](O)[C@H](C)O2)[C@H](C)[C@@H](O[C@@H]2O[C@H](C)C[C@H](N(C)C)[C@H]2O)[C@](C)(OC)C[C@@H](C)C(=O)[C@H](C)[C@@H](O)[C@]1(C)O [Clarithromycin] + CO/N=C(\C(=O)N[C@@H]1C(=O)N2C(C(=O)O)=C(COC(C)=O)CS[C@H]12)c1csc(N)n1 [Cefotaxime]
fitness, S. pneumoniae D39V, one replicate
Conditions | first compound 0.007812 µg/mL | first compound 0.01562 µg/mL | first compound 0.03125 µg/mL
partner 0.0018 µg/mL | 0.903 | 0.874 | 0.652
partner 0.0035 µg/mL | 0.922 | 0.868 | 0.662
partner 0.007 µg/mL | 0.704 | 0.698 | 0.596

fitness, S. pneumoniae D39V
Conditions | first compound 0.0625 µg/mL | first compound 0.07 µg/mL | first compound 0.125 µg/mL | first compound 0.14 µg/mL | first compound 0.25 µg/mL | first compound 0.28 µg/mL
partner 0.0018 µg/mL | 0.643 | 0.155 | 0.36 | 0.11 | 0.134 | 0.0567
partner 0.0035 µg/mL | 0.626 | 0.149 | 0.354 | 0.106 | 0.136 | 0.0647
partner 0.007 µg/mL | 0.532 | 0.103 | 0.296 | 0.108 | 0.0943 | 0.0726
